# Assay results: ChEMBL document CHEMBL1144592, “Synthesis and antimicrobial activities of Schiff bases derived from 5-chloro-salicylaldehyde” (2007)
# Experiments:
# Format in all cases: functional
# [1] = test system: Escherichia coli; experiment: Antibacterial activity against Escherichia coli after 24 hrs by MTT colorimetric method
# [2] = test system: Pseudomonas fluorescens; experiment: Antibacterial activity against Pseudomonas fluorescens after 24 hrs by MTT colorimetric method
# [3] = test system: Staphylococcus aureus; experiment: Antibacterial activity against Staphylococcus aureus after 24 hrs by MTT colorimetric method
# [4] = test system: Candida albicans; experiment: Antifungal activity against Candida albicans after 48 hrs by MTT colorimetric method
# [5] = test system: Bacillus subtilis; experiment: Antibacterial activity against Bacillus subtilis after 24 hrs by MTT colorimetric method
# [6] = test system: Aspergillus niger; experiment: Antifungal activity against Aspergillus niger after 48 hrs by MTT colorimetric method
# [7] = test system: Trichophyton rubrum; experiment: Antifungal activity against Trichophyton rubrum after 48 hrs by MTT colorimetric method
Compound,MIC [1],MIC [2],MIC [3],MIC [4],MIC [5],MIC [6],MIC [7]
Oc1ccc(Cl)cc1/C=N/C1CCCCC1,48.6 µg/mL,12.5 µg/mL,25 µg/mL,> 50 µg/mL,> 50 µg/mL,> 50 µg/mL,> 50 µg/mL
CCOC(=O)N1CCC(/N=C/c2cc(Cl)ccc2O)CC1,> 50 µg/mL,> 50 µg/mL,> 50 µg/mL,> 50 µg/mL,> 50 µg/mL,> 50 µg/mL,> 50 µg/mL
CC1(C)CC(/N=C/c2cc(Cl)ccc2O)CC(C)(C)N1,> 50 µg/mL,40.5 µg/mL,> 50 µg/mL,> 50 µg/mL,> 50 µg/mL,> 50 µg/mL,> 50 µg/mL
Oc1ccc(Cl)cc1/C=N/CCN1CCNCC1,> 50 µg/mL,> 50 µg/mL,22.5 µg/mL,> 50 µg/mL,> 50 µg/mL,> 50 µg/mL,> 50 µg/mL
Oc1ccc(Cl)cc1/C=N/CCCN1CCOCC1,> 50 µg/mL,> 50 µg/mL,18.5 µg/mL,> 50 µg/mL,> 50 µg/mL,> 50 µg/mL,> 50 µg/mL
Oc1ccc(Cl)cc1/C=N/C1CCCC1,4.1 µg/mL,3.4 µg/mL,> 50 µg/mL,> 50 µg/mL,> 50 µg/mL,> 50 µg/mL,> 50 µg/mL
Oc1ccc(CC/N=C/c2cc(Cl)ccc2O)cc1,> 50 µg/mL,3.1 µg/mL,1.8 µg/mL,> 50 µg/mL,48.5 µg/mL,> 50 µg/mL,> 50 µg/mL
O=[N+]([O-])c1ccc(/N=C/c2cc(Cl)ccc2O)cc1,> 50 µg/mL,> 50 µg/mL,18.5 µg/mL,> 50 µg/mL,> 50 µg/mL,> 50 µg/mL,> 50 µg/mL
Oc1ccc(Cl)cc1/C=N/C1CCN(Cc2ccccc2)CC1,> 50 µg/mL,> 50 µg/mL,> 50 µg/mL,> 50 µg/mL,> 50 µg/mL,> 50 µg/mL,> 50 µg/mL
Oc1ccc(Cl)cc1/C=N/Cc1ccco1,5.7 µg/mL,5.2 µg/mL,> 50 µg/mL,> 50 µg/mL,49.8 µg/mL,> 50 µg/mL,> 50 µg/mL
OCC/N=C/c1cc(Cl)ccc1O,> 50 µg/mL,> 50 µg/mL,15.5 µg/mL,12.5 µg/mL,> 50 µg/mL,> 50 µg/mL,> 50 µg/mL
CC(C/N=C/c1cc(Cl)ccc1O)/N=C/c1cc(Cl)ccc1O (stereo unspecified),4.9 µg/mL,3.6 µg/mL,> 50 µg/mL,> 50 µg/mL,1.8 µg/mL,> 50 µg/mL,> 50 µg/mL
CN(C)CCC/N=C/c1cc(Cl)ccc1O,> 50 µg/mL,> 50 µg/mL,> 50 µg/mL,> 50 µg/mL,> 50 µg/mL,> 50 µg/mL,> 50 µg/mL
Oc1ccc(Cl)cc1/C=N/CC/N=C/c1cc(Cl)ccc1O,> 50 µg/mL,2.8 µg/mL,> 50 µg/mL,> 50 µg/mL,> 50 µg/mL,> 50 µg/mL,> 50 µg/mL
Oc1ccc(Cl)cc1/C=N/Cc1ccccc1,3.1 µg/mL,3.2 µg/mL,> 50 µg/mL,> 50 µg/mL,> 50 µg/mL,> 50 µg/mL,> 50 µg/mL
Oc1ccc(Cl)cc1/C=N/Cc1ccc(F)cc1,1.6 µg/mL,2.8 µg/mL,3.4 µg/mL,> 50 µg/mL,45.2 µg/mL,47.5 µg/mL,> 50 µg/mL
CN(CCC/N=C/c1cc(Cl)ccc1O)CCC/N=C/c1cc(Cl)ccc1O,> 50 µg/mL,> 50 µg/mL,> 50 µg/mL,> 50 µg/mL,> 50 µg/mL,> 50 µg/mL,> 50 µg/mL
Oc1ccc(Cl)cc1/C=N/CCCCCC/N=C/c1cc(Cl)ccc1O,> 50 µg/mL,> 50 µg/mL,> 50 µg/mL,> 50 µg/mL,> 50 µg/mL,> 50 µg/mL,> 50 µg/mL
CC1(/N=C/c2cc(Cl)ccc2O)CCC(C(C)(C)/N=C/c2cc(Cl)ccc2O)CC1 (stereo unspecified),> 50 µg/mL,> 50 µg/mL,> 50 µg/mL,> 50 µg/mL,> 50 µg/mL,> 50 µg/mL,> 50 µg/mL
Oc1ccc(Cl)cc1/C=N/CC1CCCCC1,> 50 µg/mL,> 50 µg/mL,> 50 µg/mL,> 50 µg/mL,> 50 µg/mL,> 50 µg/mL,> 50 µg/mL
CCN(CC)CCC/N=C/c1cc(Cl)ccc1O,> 50 µg/mL,> 50 µg/mL,> 50 µg/mL,> 50 µg/mL,> 50 µg/mL,> 50 µg/mL,> 50 µg/mL
Oc1ccc(Cl)cc1/C=N/CC1CCCC(C/N=C/c2cc(Cl)ccc2O)C1 (stereo unspecified),> 50 µg/mL,> 50 µg/mL,> 50 µg/mL,> 50 µg/mL,> 50 µg/mL,> 50 µg/mL,> 50 µg/mL
Oc1ccc(Cl)cc1/C=N/CCNCC/N=C/c1cc(Cl)ccc1O,> 50 µg/mL,32.5 µg/mL,> 50 µg/mL,> 50 µg/mL,> 50 µg/mL,> 50 µg/mL,> 50 µg/mL
Oc1ccc(Cl)cc1/C=N/CCC/N=C/c1cc(Cl)ccc1O,5 µg/mL,4.5 µg/mL,> 50 µg/mL,> 50 µg/mL,> 50 µg/mL,> 50 µg/mL,> 50 µg/mL
Oc1ccc(Cl)cc1/C=N/CCN1CCOCC1,3.5 µg/mL,2.5 µg/mL,> 50 µg/mL,> 50 µg/mL,> 50 µg/mL,> 50 µg/mL,> 50 µg/mL
Oc1ccc(Cl)cc1/C=N/Cc1cccnc1,> 50 µg/mL,12.5 µg/mL,19.5 µg/mL,> 50 µg/mL,> 50 µg/mL,> 50 µg/mL,> 50 µg/mL
NC[C@H]1O[C@H](O[C@H]2[C@H](O)[C@@H](O[C@H]3O[C@H](CO)[C@@H](O)[C@H](N)[C@H]3O)[C@H](N)C[C@@H]2N)[C@H](O)[C@@H](O)[C@@H]1O [KANAMYCIN],3.9 µg/mL,3.9 µg/mL,1 µg/mL,> 50 µg/mL,0.39 µg/mL,> 50 µg/mL,> 50 µg/mL
CC(=O)N1CCN(c2ccc(OC[C@H]3CO[C@](Cn4ccnc4)(c4ccc(Cl)cc4Cl)O3)cc2)CC1 [KETOCONAZOLE],> 50 µg/mL,> 50 µg/mL,> 50 µg/mL,3.9 µg/mL,> 50 µg/mL,7.8 µg/mL,3.9 µg/mL
